This note sets out measurements from the supplement of paper PMC11208160.

A short description of the data set: recombinant UMI read abundance after kanamycin selection (control-corrected) (log10(CPM+1)); higher = more efficient recombination; extreme values may be limits of the assay; sequences stand for … in AGTGCAGAGAAAATCGGCCAGTTTTCTCTGCCTGCAGTCCGCATGCCGTGGGACCCCTTGGGTTCTAACCTGTTGCCTAGATTTATGCAGCGGACTGCCTTTCTCCCAAAGTGATAAACCGG…AGGTTGGTTTCACT; site = the 11-nt donor. Summed up:
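Counts of recombinant UMIs were reported as log10(CPM+1). Before that, they were converted to CPM, averaged over replicates and scaled using control-derived factors. They came from PCR across the donor–target junction after Escherichia coli carrying the pair library and target plasmid was plated on IPTG (0.07 mM) plus kanamycin, or unselected, in two replicates each.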
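Also: IS621 bridge recombinase in Escherichia coli cells against a fixed T5 target plasmid.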

With “TCCACTTCATGGACCGGTTTTCCCGGTAATCCGTATTTGCC (site TCCAATTCTGG)”, the “recombinant UMI read abundance (log10)” value came to 0. The figure for “TCCACTTCATGGACCGGTTTTCCCGGTAATCCGTATTTGCC (site TCCACTTCTGG)” is 0; for “TCCACTTCATGGACCGGTTTTCCCGGTAATCCGTATTTGCC (site TCCAGTTCTGG)” it is 0. The figure for “TCCACTTCATGGACCGGTTTTCCCGGTAATCCGTATTTGCC (site TCCATTTCTGG)” is 0; for “TCCAGATCATGGACCGGTTTTCCCGGTAATCCGTATTTGGG (site TCCAGATCTCC)” it is 0. In the case of “TCCAGTGCATGGACCGGTTTTCCCGGTAATCCGTATTTGCT (site TCCAGTGCTAG)”, the “recombinant UMI read abundance (log10)” value came out at 0. To “TCCATTCCATGGACCGGTTTTCCCGGTAATCCGTATTTGGA (site TCCATTCCTTC)” belongs 0.0134; to “TCCCAAACATGGACCGGTTTTCCCGGTAATCCGTATTTGCT (site TCCCAAACTAG)”, 0.0138.

Regarding “TCCCACCCATGGACCGGTTTTCCCGGTAATCCGTATTTGAT (site TCCCACCCTAT)”, the “recombinant UMI read abundance (log10)” value was found to be 0.0298. The figure for “TCCCGCCCATGGACCGGTTTTCCCGGTAATCCGTATTTGCT (site TCCCGCCCTAG)” is 0.00858. To “TCCCTTCCATGGACCGGTTTTCCCGGTAATCCGTATTTGCG (site TCCCTTCCTCG)” belongs 0; to “TCCGCTGCATGGACCGGTTTTCCCGGTAATCCGTATTTGAA (site TCCGCTGCTTT)”, 0; to “TCCGGTGCATGGACCGGTTTTCCCGGTAATCCGTATTTGCC (site TCCGGTGCTGG)”, 0. The figure for “TCCTACCCATGGACCGGTTTTCCCGGTAATCCGTATTTGGT (site TCCTACCCTAC)” is 0.00951; for “TCCTAGCCATGGACCGGTTTTCCCGGTAATCCGTATTTGTA (site TCCTAGCCTTA)” it is 0.0223. Regarding “TCCTATTCATGGACCGGTTTTCCCGGTAATCCGTATTTGCC (site TCCAATTCTGG)”, the “recombinant UMI read abundance (log10)” value worked out at 0. The figure for “TCCTATTCATGGACCGGTTTTCCCGGTAATCCGTATTTGCC (site TCCCATTCTGG)” is 0.

In the case of “TCCTATTCATGGACCGGTTTTCCCGGTAATCCGTATTTGCC (site TCCGATTCTGG)”, the “recombinant UMI read abundance (log10)” value is 0. On to “TCCTATTCATGGACCGGTTTTCCCGGTAATCCGTATTTGCC (site TCCTATTCTGG)”, for which the “recombinant UMI read abundance (log10)” value is 0. “TCCTCCCCATGGACCGGTTTTCCCGGTAATCCGTATTTGCG (site TCCTCCCCTCG)”: the “recombinant UMI read abundance (log10)” value is 0.00424. For “TCCTCCGCATGGACCGGTTTTCCCGGTAATCCGTATTTGCG (site TCCACCGCTCG)”, the “recombinant UMI read abundance (log10)” value worked out at 0.00517. The figure for “TCCTCCGCATGGACCGGTTTTCCCGGTAATCCGTATTTGCG (site TCCCCCGCTCG)” is 0.0138; for “TCCTCCGCATGGACCGGTTTTCCCGGTAATCCGTATTTGCG (site TCCGCCGCTCG)” it is 0; for “TCCTCCGCATGGACCGGTTTTCCCGGTAATCCGTATTTGCG (site TCCTCCGCTCG)” it is 0.0201. “TCCTCCTCATGGACCGGTTTTCCCGGTAATCCGTATTTGCC (site TCCTCCTCTGG)”: the “recombinant UMI read abundance (log10)” value was 0.

Take “TCCTTGACATGGACCGGTTTTCCCGGTAATCCGTATTTGCT (site TACTTGACTAG)”: the “recombinant UMI read abundance (log10)” value was 0.397. The figure for “TCCTTGACATGGACCGGTTTTCCCGGTAATCCGTATTTGCT (site TCCTTGACTAG)” is 0; for “TCCTTGACATGGACCGGTTTTCCCGGTAATCCGTATTTGCT (site TGCTTGACTAG)” it is 0.

Turning to “TCCTTGACATGGACCGGTTTTCCCGGTAATCCGTATTTGCT (site TTCTTGACTAG)”, the “recombinant UMI read abundance (log10)” value is 0. On to “TCGAAGCCATGGACCGGTTTTCCCGGTAATCCGTATTTGGG (site ACGAAGCCTCC)”, for which the “recombinant UMI read abundance (log10)” value was 0.0545. To “TCGAAGCCATGGACCGGTTTTCCCGGTAATCCGTATTTGGG (site CCGAAGCCTCC)” belongs 0.0131; to “TCGAAGCCATGGACCGGTTTTCCCGGTAATCCGTATTTGGG (site GCGAAGCCTCC)”, 0.0961. With “TCGAAGCCATGGACCGGTTTTCCCGGTAATCCGTATTTGGG (site TCGAAGCCTCC)”, the “recombinant UMI read abundance (log10)” value was found to be 0.0129. Consider “TCGAATACATGGACCGGTTTTCCCGGTAATCCGTATTTGAG (site TCGAATACTCT)”, for which the “recombinant UMI read abundance (log10)” value stood at 1.44. To “TCGACAGCATGGACCGGTTTTCCCGGTAATCCGTATTTGTA (site TCGACAGCTTA)” belongs 1.02; to “TCGACATCATGGACCGGTTTTCCCGGTAATCCGTATTTGCG (site TCGACATCTCG)”, 0.266; to “TCGACCGCATGGACCGGTTTTCCCGGTAATCCGTATTTGCG (site TCAACCGCTCG)”, 0.00755. “TCGACCGCATGGACCGGTTTTCCCGGTAATCCGTATTTGCG (site TCCACCGCTCG)”: the “recombinant UMI read abundance (log10)” value came to 0. The figure for “TCGACCGCATGGACCGGTTTTCCCGGTAATCCGTATTTGCG (site TCGACCGCTCG)” is 0.0218. As to “TCGACCGCATGGACCGGTTTTCCCGGTAATCCGTATTTGCG (site TCTACCGCTCG)”, the “recombinant UMI read abundance (log10)” value was found to be 0.0287.

As to “TCGACCTCATGGACCGGTTTTCCCGGTAATCCGTATTTGGA (site TCGACCTCTTC)”, the “recombinant UMI read abundance (log10)” value was 0.524. To “TCGAGAGCATGGACCGGTTTTCCCGGTAATCCGTATTTGGC (site TCGAGAGCTGC)” belongs 1.86; to “TCGCACACATGGACCGGTTTTCCCGGTAATCCGTATTTGGG (site TCGCACACTCC)”, 0.0145. To “TCGCAGACATGGACCGGTTTTCCCGGTAATCCGTATTTGCG (site TCGCAGACTCG)” belongs 0.0105; to “TCGCAGCCATGGACCGGTTTTCCCGGTAATCCGTATTTGCT (site TCGCAGCCTAG)”, 0. To “TCGCCATCATGGACCGGTTTTCCCGGTAATCCGTATTTGGC (site GAAGGCCCTAG)” belongs 0; to “TCGCGTACATGGACCGGTTTTCCCGGTAATCCGTATTTGGG (site TCGCGTACTCC)”, 0.0193; to “TCGCTAGCATGGACCGGTTTTCCCGGTAATCCGTATTTGCT (site TCGCTAGCTAG)”, 0. Turning to “TCGCTCTCATGGACCGGTTTTCCCGGTAATCCGTATTTGGC (site TCGCTCTCTGC)”, the “recombinant UMI read abundance (log10)” value is 0. Turning to “TCGCTGACATGGACCGGTTTTCCCGGTAATCCGTATTTGTA (site TCGCTGACTTA)”, the “recombinant UMI read abundance (log10)” value came to 1.3. For the sequence “TCGGACCCATGGACCGGTTTTCCCGGTAATCCGTATTTGGG (site TCGGACCCTCC)”, the “recombinant UMI read abundance (log10)” value came out at 0.036. In the case of “TCGGACCCATGGACCGGTTTTCCCGGTAATCCGTATTTGTT (site TCGGACCCTAA)”, the “recombinant UMI read abundance (log10)” value worked out at 0.013. On to “TCGGTAGCATGGACCGGTTTTCCCGGTAATCCGTATTTGTG (site TCGGTAGCTCA)”, for which the “recombinant UMI read abundance (log10)” value was found to be 0.629. The figure for “TCGTACGCATGGACCGGTTTTCCCGGTAATCCGTATTTGCC (site TCGTACGCTGG)” is 0; for “TCGTATCCATGGACCGGTTTTCCCGGTAATCCGTATTTGAC (site TCGTATCCTGT)” it is 0; for “TCGTCACCATGGACCGGTTTTCCCGGTAATCCGTATTTGTA (site TCGTCACCTTA)” it is 0.0393.

In the case of “TCGTGCACATGGACCGGTTTTCCCGGTAATCCGTATTTGAC (site TCGTGCACTGT)”, the “recombinant UMI read abundance (log10)” value came out at 1.93. To “TCGTTCGCATGGACCGGTTTTCCCGGTAATCCGTATTTGCT (site TCGTTCGCTAG)” belongs 0; to “TCTAAGTCATGGACCGGTTTTCCCGGTAATCCGTATTTGCA (site TCTAAGTCTTG)”, 0.436; to “TCTAGAACATGGACCGGTTTTCCCGGTAATCCGTATTTGAG (site ACTAGAACTCT)”, 0.00743. As for “TCTAGAACATGGACCGGTTTTCCCGGTAATCCGTATTTGAG (site CCTAGAACTCT)”, the “recombinant UMI read abundance (log10)” value was found to be 0.0482.

As for “TCTAGAACATGGACCGGTTTTCCCGGTAATCCGTATTTGAG (site GCTAGAACTCT)”, the “recombinant UMI read abundance (log10)” value is 0.

For the sequence “TCTAGAACATGGACCGGTTTTCCCGGTAATCCGTATTTGAG (site TCTAGAACTCT)”, the “recombinant UMI read abundance (log10)” value was 0.00301.

For “TCTATGACATGGACCGGTTTTCCCGGTAATCCGTATTTGTG (site TCTATGACTCA)”, the “recombinant UMI read abundance (log10)” value is 0.00894. For the sequence “TCTGGACCATGGACCGGTTTTCCCGGTAATCCGTATTTGAC (site TCTGGACCTGT)”, the “recombinant UMI read abundance (log10)” value turned out to be 0. To “TCTGGCGCATGGACCGGTTTTCCCGGTAATCCGTATTTGCC (site TCTGGCGCTGG)” belongs 0; to “TCTTCCGCATGGACCGGTTTTCCCGGTAATCCGTATTTGAT (site TCTTCCGCTAT)”, 0.00526.

As for “TCTTCGGCATGGACCGGTTTTCCCGGTAATCCGTATTTGGC (site TCTTCGGCTGC)”, the “recombinant UMI read abundance (log10)” value was found to be 0.
